The target in assay [1] is T1, p38 MAPKα isoform (MAPK14) (Homo sapiens, UniProt Q16539).
T1 construct: purchased Life Technologies
The assay is described as follows: p38 MAPKα enzyme inhibition (Z-LYTE FRET). Type of assay: biochemical. The following applies: Table 2B, unit inferred; read-out: p38 MAPKα (Enzyme Profile). The procedure, abridged:
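Recombinant human MAPK14 (40 ng/mL stock) was preincubated 2 h at RT with compound (stock dilutions 0.0012-40 μg/mL). The Z-LYTE FRET read-out used a MAPKAP-K2-derived peptide, and protease development for 1 h cleaved only non-phosphorylated peptide. Phosphorylation was calculated from the coumarin/fluorescein emission ratio.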

The next assay concerns the target T2, p38MAPKγ (MAPK12) (Homo sapiens, UniProt P53778).
T2 construct: purchased Life Technologies
T2 sequence (P53778 1-367): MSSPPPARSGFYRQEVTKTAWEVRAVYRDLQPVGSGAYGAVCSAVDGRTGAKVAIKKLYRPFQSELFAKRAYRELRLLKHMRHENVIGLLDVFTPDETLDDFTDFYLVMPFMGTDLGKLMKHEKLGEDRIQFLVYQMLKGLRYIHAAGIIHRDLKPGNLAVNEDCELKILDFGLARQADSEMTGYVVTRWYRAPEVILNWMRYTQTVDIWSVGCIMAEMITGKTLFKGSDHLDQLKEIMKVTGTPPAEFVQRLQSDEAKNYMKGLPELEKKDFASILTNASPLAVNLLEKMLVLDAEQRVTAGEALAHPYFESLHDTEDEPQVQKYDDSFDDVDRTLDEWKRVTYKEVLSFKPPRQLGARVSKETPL
The assay can be described thus: p38 MAPKγ enzyme inhibition (Z-LYTE FRET). Type of assay: biochemical. The following applies: Table 2B, unit inferred; read-out: p38 MAPKγ (Enzyme Profile). The procedure, abridged: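 Z-LYTE read-out: after 1 h protease development, only non-phosphorylated peptide is cleaved, and the donor/acceptor (coumarin/fluorescein) ratio reports phosphorylation. Beforehand, enzyme and compound (stock concentrations 0.0012–40 μg/mL) were preincubated 2 h at RT, then the kinase reaction ran 1 h at RT with peptide and ATP (8 μM and 400 μM stocks).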

Our source for the IC50 values is patent US11142515B2, “Pyrazolyl-ureas as kinase inhibitors” (RESPIVERT LIMITED, priority 2014, dated 2021).

A value given as a limit tells only on which side of the number the result lay.

T1 sequence (Q16539 whole entry, canonical isoform): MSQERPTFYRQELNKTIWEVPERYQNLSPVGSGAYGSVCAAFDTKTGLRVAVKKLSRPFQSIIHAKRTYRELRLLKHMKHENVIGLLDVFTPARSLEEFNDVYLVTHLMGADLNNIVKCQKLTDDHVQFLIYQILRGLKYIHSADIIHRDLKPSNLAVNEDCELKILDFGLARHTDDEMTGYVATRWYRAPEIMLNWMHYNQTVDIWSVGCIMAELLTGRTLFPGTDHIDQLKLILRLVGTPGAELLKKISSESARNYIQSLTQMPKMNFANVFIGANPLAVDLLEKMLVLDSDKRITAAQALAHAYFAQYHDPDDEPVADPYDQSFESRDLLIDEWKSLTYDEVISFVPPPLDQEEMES

Regarding `COc1cc(-n2nc(C(C)(C)C)cc2NC(=O)Nc2ccc(OCc3ccnc(Nc4cnc(C(=O)N5CCCC5)cn4)c3)c3ccccc23)ccc1C` [Example 226, 1-(3-(tert-butyl)-1-(3-methoxy-4-methylphenyl)-1H-pyrazol-5-yl)-3-(4-((2-((5-(pyrrolidine-1-carbonyl)pyrazin-2-yl)amino)pyridin-4-yl)methoxy)naphthalen-1-yl)urea], the results for the IC50 (in assay [1]; on p38MAPKγ (MAPK12)) were 35 nM and > 13800 nM, respectively.

For the compound `COc1cc(C)cc(-n2nc(C(C)(C)C)cc2NC(=O)Nc2ccc(OCc3ccnc(Nc4cnc(C(=O)N5CCCC5)cn4)c3)c3ccccc23)c1` [Example 227, 1-(3-(tert-butyl)-1-(3-methoxy-5-methylphenyl)-1H-pyrazol-5-yl)-3-(4-((2-((5-(pyrrolidine-1-carbonyl)pyrazin-2-yl)amino)pyridin-4-yl)methoxy)naphthalen-1-yl)urea], the IC50 in assay [1] was 43 nM; on p38MAPKγ (MAPK12) it was > 13800 nM.

In the case of `COc1ccc(-n2nc(C(C)(C)C)cc2NC(=O)Nc2ccc(OCc3ccnc(Nc4cnc(C(=O)N5CCCC5)cn4)c3)c3ccccc23)cc1F` [Example 228, 1-(3-(tert-butyl)-1-(3-fluoro-4-methoxyphenyl)-1H-pyrazol-5-yl)-3-(4-((2-((5-(pyrrolidine-1-carbonyl)pyrazin-2-yl)amino)pyridin-4-yl)methoxy)naphthalen-1-yl)urea], the IC50 in assay [1] is 35 nM; on p38MAPKγ (MAPK12), > 13700 nM.

For the compound `CCc1ccc(-n2nc(C(C)(C)C)cc2NC(=O)Nc2ccc(OCc3ccnc(Nc4cnc(C(=O)N5CCCC5)cn4)c3)c3ccccc23)cc1` [Example 229, 1-(3-(tert-butyl)-1-(4-ethyl-phenyl)-1H-pyrazol-5-yl)-3-(4-((2-((5-(pyrrolidine-1-carbonyl)pyrazin-2-yl)amino)pyridin-4-yl)methoxy)naphthalen-1-yl)urea], the IC50 in assay [1] was 27 nM; at p38MAPKγ (MAPK12) it was > 14100 nM.

`CCc1cccc(-n2nc(C(C)(C)C)cc2NC(=O)Nc2ccc(OCc3ccnc(Nc4cnc(C(=O)N5CCCC5)cn4)c3)c3ccccc23)c1` [Example 230, 1-(3-(tert-butyl)-1-(3-ethyl-phenyl)-1H-pyrazol-5-yl)-3-(4-((2-((5-(pyrrolidine-1-carbonyl)pyrazin-2-yl)amino)pyridin-4-yl)methoxy)naphthalen-1-yl)urea]: the figures for the IC50 (in assay [1]; on p38MAPKγ (MAPK12)) were 43 nM and > 14100 nM, respectively.

In the case of `Cc1cccc(-n2nc(C(C)(C)C)cc2NC(=O)Nc2ccc(OCc3ccnc(Nc4cnc(C(=O)NCCCO)cn4)c3)c3ccccc23)c1` [Example 231, 5-((4-(((4-(3-(3-(tert-butyl)-1-(m-tolyl)-1H-pyrazol-5-yl)ureido)naphthalen-1-yl)oxy)methyl)pyridin-2-yl)amino)-N-(3-hydroxypropyl) pyrazine-2-carboxamide], the IC50 in assay [1] was 15 nM; at p38MAPKγ (MAPK12) it was 95 nM.

As to `Cc1ccc(-n2nc(C(C)(C)C)cc2NC(=O)Nc2ccc(OCc3ccnc(Nc4cnc(C(=O)N5CCC[C@H](O)C5)cn4)c3)c3ccccc23)cc1` [Example 232, (S)-1-(3-(tert-butyl)-1-(p-tolyl)-1H-pyrazol-5-yl)-3-(4-((2-((5-(3-hydroxypiperidine-1-carbonyl)pyrazin-2-yl)amino)pyridin-4-yl)methoxy)naphthalen-1-yl)urea], the values for the IC50 (in assay [1]; at p38MAPKγ (MAPK12)) were 18 nM and 117 nM, respectively.

In the case of `Cc1ccc(-n2nc(C(C)(C)C)cc2NC(=O)Nc2ccc(OCc3ccnc(Nc4cnc(C(=O)N5CCC[C@@H](O)C5)cn4)c3)c3ccccc23)cc1` [Example 233, (R)-1-(3-(tert-butyl)-1-(p-tolyl)-1H-pyrazol-5-yl)-3-(4-((2-((5-(3-hydroxypiperidine-1-carbonyl)pyrazin-2-yl)amino)pyridin-4-yl)methoxy)naphthalen-1-yl)urea], the IC50 in assay [1] was 9.4 nM; at p38MAPKγ (MAPK12), 98 nM.

For the compound `CCc1cccc(-n2nc(C(C)(C)C)cc2NC(=O)Nc2ccc(OCc3ccnc(Nc4cncc(CC)n4)c3)c3ccccc23)c1` [Example 234, 1-(3-(tert-butyl)-1-(3-ethyl-phenyl)-1H-pyrazol-5-yl)-3-(4-((2-((6-ethylpyrazin-2-yl)amino)pyridin-4-yl)methoxy)naphthalen-1-yl)urea], the results for the IC50 (in assay [1]; at p38MAPKγ (MAPK12)) were 64 nM and > 15600 nM, respectively.

Take `Cc1ccc(-n2nc(C(C)(C)C)cc2NC(=O)Nc2ccc(OCc3ccnc(Nc4cnc(C(=O)N5CCCC5)cn4)c3)c3ccccc23)cc1F` [Example 235, 1-(3-(tert-butyl)-1-(3-fluoro-4-methylphenyl)-1H-pyrazol-5-yl)-3-(4-((2-((5-(pyrrolidine-1-carbonyl)pyrazin-2-yl)amino)pyridin-4-yl)methoxy)naphthalen-1-yl)urea]: the results for the IC50 (in assay [1]; at p38MAPKγ (MAPK12)) were 65 nM and > 14000 nM, respectively.

`Cc1cc(F)cc(-n2nc(C(C)(C)C)cc2NC(=O)Nc2ccc(OCc3ccnc(Nc4cnc(C(=O)N5CCCC5)cn4)c3)c3ccccc23)c1` [Example 236, 1-(3-(tert-butyl)-1-(3-fluoro-5-methylphenyl)-1H-pyrazol-5-yl)-3-(4-((2-((5-(pyrrolidine-1-carbonyl)pyrazin-2-yl)amino)pyridin-4-yl)methoxy)naphthalen-1-yl)urea]: the IC50 in assay [1] is 42 nM; at p38MAPKγ (MAPK12) it was > 14000 nM.

In the case of `CC(C)(C)c1cc(NC(=O)Nc2ccc(OCc3ccnc(Nc4cnccn4)c3)c3ccccc23)n(-c2cccc(CCO)c2)n1` [Example 237, 1-(3-(tert-butyl)-1-(3-(2-hydroxyethyl)phenyl)-1H-pyrazol-5-yl)-3-(4-((2-(pyrazin-2-ylamino)pyridin-4-yl)methoxy)naphthalen-1-yl)urea], the IC50 in assay [1] is 8.4 nM; at p38MAPKγ (MAPK12), 29 nM.

Regarding `CO[C@H]1CCCN(C(=O)c2cnc(Nc3cc(COc4ccc(NC(=O)Nc5cc(C(C)(C)C)nn5-c5ccc(C)cc5)c5ccccc45)ccn3)cn2)C1` [Example 238, (S)-1-(3-(tert-butyl)-1-(p-tolyl)-1H-pyrazol-5-yl)-3-(4-((2-((5-(3-methoxypiperidine-1-carbonyl)pyrazin-2-yl)amino)pyridin-4-yl)methoxy)naphthalen-1-yl)urea], the figures for the IC50 (in assay [1]; at p38MAPKγ (MAPK12)) were 19 nM and 151 nM, respectively.

As for `CO[C@@H]1CCCN(C(=O)c2cnc(Nc3cc(COc4ccc(NC(=O)Nc5cc(C(C)(C)C)nn5-c5ccc(C)cc5)c5ccccc45)ccn3)cn2)C1` [Example 239, (R)-1-(3-(tert-butyl)-1-(p-tolyl)-1H-pyrazol-5-yl)-3-(4-((2-((5-(3-methoxy-piperidine-1-carbonyl)pyrazin-2-yl)amino)pyridin-4-yl)methoxy)naphthalen-1-yl)urea], the IC50 in assay [1] amounted to 14 nM; at p38MAPKγ (MAPK12), 130 nM.

`CC(=O)N1CCN(C(=O)c2cnc(Nc3cc(COc4ccc(NC(=O)Nc5cc(C(C)(C)C)nn5-c5ccc(C)cc5)c5ccccc45)ccn3)cn2)CC1` [Example 240, 1-(4-((2-((5-(4-acetyl-piperazine-1-carbonyl)pyrazin-2-yl)amino)pyridin-4-yl)methoxy)naphthalen-1-yl)-3-(3-(tert-butyl)-1-(p-tolyl)-1H-pyrazol-5-yl)urea]: the IC50 in assay [1] stood at 12 nM; on p38MAPKγ (MAPK12), 80 nM.

Regarding `Cc1ccc(-n2nc(C(C)(C)C)cc2NC(=O)Nc2ccc(OCc3ccnc(Nc4cnc(C(=O)N5CCNC(=O)CC5)cn4)c3)c3ccccc23)cc1` [Example 241, 1-(3-(tert-butyl)-1-(p-tolyl)-1H-pyrazol-5-yl)-3-(4-((2-((5-(5-oxo-1,4-diazepane-1-carbonyl)pyrazin-2-yl)amino)pyridin-4-yl)methoxy)naphthalen-1-yl)urea], the IC50 in assay [1] was found to be 3.4 nM; at p38MAPKγ (MAPK12), 48 nM.

`Cc1ccc(-n2nc(C(C)(C)C)cc2NC(=O)Nc2ccc(OCc3ccnc(Nc4cnc(C(=O)N5CC[C@H](F)C5)cn4)c3)c3ccccc23)cc1` [Example 242, (S)-1-(3-(tert-butyl)-1-(p-tolyl)-1H-pyrazol-5-yl)-3-(4-((2-((5-(3-fluoropyrrolidine-1-carbonyl)pyrazin-2-yl)amino)pyridin-4-yl)methoxy)naphthalen-1-yl)urea]: the IC50 in assay [1] is 19 nM; on p38MAPKγ (MAPK12) it was > 14000 nM.

`Cc1ccc(-n2nc(C(C)(C)C)cc2NC(=O)Nc2ccc(OCc3ccnc(Nc4cnc(C(=O)N5CCS(=O)(=O)CC5)cn4)c3)c3ccccc23)cc1` [Example 243, 1-(3-(tert-butyl)-1-(p-tolyl)-1H-pyrazol-5-yl)-3-(4-((2-((5-(1,1-dioxidothiomor-pholine-4-carbonyl)pyrazin-2-yl)amino)pyridin-4-yl)methoxy)naphthalen-1-yl) urea]: the IC50 in assay [1] amounted to 8.5 nM; on p38MAPKγ (MAPK12) it was 96 nM.

As to `Cc1ccc(-n2nc(C(C)(C)C)cc2NC(=O)Nc2ccc(OCc3ccnc(Nc4cnc(C(=O)N5CCN(C)C(=O)C5)cn4)c3)c3ccccc23)cc1` [Example 244, 1-(3-(tert-butyl)-1-(p-tolyl)-1H-pyrazol-5-yl)-3-(4-((2-((5-(4-methyl-3-oxopipera-zine-1-carbonyl)pyrazin-2-yl)amino)pyridin-4-yl)methoxy)naphthalen-1-yl) urea], the IC50 stood at 3 nM in assay [1] and 46 nM at p38MAPKγ (MAPK12).
